Results reported in article PMC10174618, “Monoterpenoid aryl hydrocarbon receptor allosteric antagonists protect against ultraviolet skin damage in female mice” (Nature Communications, 2023).

What was measured:
Experiment in all cases: biochemical
Set-up in all cases: KINOMEscan scanMAX active site-directed competition binding assay, percent of control, 468 kinases
Conditions in all cases: competition binding, percent of control
[1] = molecular target: T1, ABL1-nonphosphorylated (Homo sapiens, UniProt P00519)
T1 construct: nonphosphorylated
In short: (§1)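 KINOMEscan active site-directed competition binding assay against 468 human kinases with 100 μM S-carvone. Binding expressed as % of control, with 35% of control as the inhibition threshold.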

[2] = molecular target: BMX (Homo sapiens, UniProt P51813)
In short: as §1

[3] = molecular target: BRSK1 (Homo sapiens, UniProt Q8TDC3)
In short: as §1

[4] = molecular target: CAMK2B (Homo sapiens, UniProt Q13554)
In short: as §1

[5] = molecular target: CDKL1 (Homo sapiens, UniProt Q00532)
In short: as §1

[6] = molecular target: DYRK1B (Homo sapiens, UniProt Q9Y463)
In short: as §1

[7] = molecular target: EGFR(L747-E749del, A750P) (Homo sapiens, UniProt P00533, A750P/DEL747-749)
In short: as §1

[8] = molecular target: EPHA5 (Homo sapiens, UniProt P54756)
In short: as §1

[9] = molecular target: EPHB2 (Homo sapiens, UniProt P29323)
In short: as §1

[10] = molecular target: GAK (Homo sapiens, UniProt O14976)
In short: as §1

[11] = molecular target: KIT(D816H) (Homo sapiens, UniProt P10721, D816H)
In short: as §1

[12] = molecular target: KIT(D816V) (Homo sapiens, UniProt P10721, D816V)
In short: as §1

[13] = molecular target: MAP4K3 (Homo sapiens, UniProt Q8IVH8)
In short: as §1

[14] = molecular target: MARK4 (Homo sapiens, UniProt Q96L34)
In short: as §1

[15] = molecular target: T2, MINK (Homo sapiens, UniProt Q8N4C8)
T2 construct: gene MINK1
In short: as §1

[16] = molecular target: T3, MKK7 (Homo sapiens, UniProt O14733)
T3 construct: gene MAP2K7
In short: as §1

[17] = molecular target: T4, NIK (Homo sapiens, UniProt Q99558)
T4 construct: gene MAP3K14
In short: as §1

[18] = molecular target: T5, PAK7 (Homo sapiens, UniProt Q9P286)
T5 construct: gene PAK5
In short: as §1

[19] = molecular target: PRKD2 (Homo sapiens, UniProt Q9BZL6)
In short: as §1

[20] = molecular target: SBK1 (Homo sapiens, UniProt Q52WX2)
In short: as §1

[21] = molecular target: STK16 (Homo sapiens, UniProt O75716)
In short: as §1

[22] = molecular target: SYK (Homo sapiens, UniProt P43405)
In short: as §1

T3 sequence (O14733 whole entry): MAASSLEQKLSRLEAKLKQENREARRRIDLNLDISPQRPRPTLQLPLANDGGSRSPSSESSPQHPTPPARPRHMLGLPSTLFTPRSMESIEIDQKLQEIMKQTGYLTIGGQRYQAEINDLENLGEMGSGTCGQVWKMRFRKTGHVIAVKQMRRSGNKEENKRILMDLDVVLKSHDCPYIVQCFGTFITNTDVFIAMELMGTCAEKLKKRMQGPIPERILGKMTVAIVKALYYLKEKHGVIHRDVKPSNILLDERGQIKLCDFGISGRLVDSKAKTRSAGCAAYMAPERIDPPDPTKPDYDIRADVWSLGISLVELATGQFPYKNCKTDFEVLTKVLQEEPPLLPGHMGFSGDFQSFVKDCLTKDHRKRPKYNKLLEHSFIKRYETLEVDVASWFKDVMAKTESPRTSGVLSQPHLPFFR
Sequence of BMX (P51813 whole entry): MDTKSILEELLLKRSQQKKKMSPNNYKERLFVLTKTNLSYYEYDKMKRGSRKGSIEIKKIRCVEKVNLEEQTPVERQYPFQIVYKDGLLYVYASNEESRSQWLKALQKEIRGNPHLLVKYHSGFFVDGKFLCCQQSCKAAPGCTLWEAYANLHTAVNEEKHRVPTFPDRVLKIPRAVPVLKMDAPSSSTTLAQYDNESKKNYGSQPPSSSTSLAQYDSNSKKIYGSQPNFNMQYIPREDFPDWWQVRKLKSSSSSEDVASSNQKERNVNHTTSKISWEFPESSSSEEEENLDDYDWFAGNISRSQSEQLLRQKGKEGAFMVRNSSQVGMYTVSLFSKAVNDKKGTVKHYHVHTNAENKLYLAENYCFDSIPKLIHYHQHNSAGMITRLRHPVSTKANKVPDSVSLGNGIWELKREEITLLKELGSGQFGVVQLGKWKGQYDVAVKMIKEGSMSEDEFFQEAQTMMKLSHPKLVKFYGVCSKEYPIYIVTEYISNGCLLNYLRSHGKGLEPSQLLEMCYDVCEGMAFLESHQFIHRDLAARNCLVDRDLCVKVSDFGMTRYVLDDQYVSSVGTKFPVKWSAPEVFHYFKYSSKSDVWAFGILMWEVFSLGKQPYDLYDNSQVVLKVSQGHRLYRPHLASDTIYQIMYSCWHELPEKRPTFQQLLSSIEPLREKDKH
Sequence of GAK (O14976 whole entry): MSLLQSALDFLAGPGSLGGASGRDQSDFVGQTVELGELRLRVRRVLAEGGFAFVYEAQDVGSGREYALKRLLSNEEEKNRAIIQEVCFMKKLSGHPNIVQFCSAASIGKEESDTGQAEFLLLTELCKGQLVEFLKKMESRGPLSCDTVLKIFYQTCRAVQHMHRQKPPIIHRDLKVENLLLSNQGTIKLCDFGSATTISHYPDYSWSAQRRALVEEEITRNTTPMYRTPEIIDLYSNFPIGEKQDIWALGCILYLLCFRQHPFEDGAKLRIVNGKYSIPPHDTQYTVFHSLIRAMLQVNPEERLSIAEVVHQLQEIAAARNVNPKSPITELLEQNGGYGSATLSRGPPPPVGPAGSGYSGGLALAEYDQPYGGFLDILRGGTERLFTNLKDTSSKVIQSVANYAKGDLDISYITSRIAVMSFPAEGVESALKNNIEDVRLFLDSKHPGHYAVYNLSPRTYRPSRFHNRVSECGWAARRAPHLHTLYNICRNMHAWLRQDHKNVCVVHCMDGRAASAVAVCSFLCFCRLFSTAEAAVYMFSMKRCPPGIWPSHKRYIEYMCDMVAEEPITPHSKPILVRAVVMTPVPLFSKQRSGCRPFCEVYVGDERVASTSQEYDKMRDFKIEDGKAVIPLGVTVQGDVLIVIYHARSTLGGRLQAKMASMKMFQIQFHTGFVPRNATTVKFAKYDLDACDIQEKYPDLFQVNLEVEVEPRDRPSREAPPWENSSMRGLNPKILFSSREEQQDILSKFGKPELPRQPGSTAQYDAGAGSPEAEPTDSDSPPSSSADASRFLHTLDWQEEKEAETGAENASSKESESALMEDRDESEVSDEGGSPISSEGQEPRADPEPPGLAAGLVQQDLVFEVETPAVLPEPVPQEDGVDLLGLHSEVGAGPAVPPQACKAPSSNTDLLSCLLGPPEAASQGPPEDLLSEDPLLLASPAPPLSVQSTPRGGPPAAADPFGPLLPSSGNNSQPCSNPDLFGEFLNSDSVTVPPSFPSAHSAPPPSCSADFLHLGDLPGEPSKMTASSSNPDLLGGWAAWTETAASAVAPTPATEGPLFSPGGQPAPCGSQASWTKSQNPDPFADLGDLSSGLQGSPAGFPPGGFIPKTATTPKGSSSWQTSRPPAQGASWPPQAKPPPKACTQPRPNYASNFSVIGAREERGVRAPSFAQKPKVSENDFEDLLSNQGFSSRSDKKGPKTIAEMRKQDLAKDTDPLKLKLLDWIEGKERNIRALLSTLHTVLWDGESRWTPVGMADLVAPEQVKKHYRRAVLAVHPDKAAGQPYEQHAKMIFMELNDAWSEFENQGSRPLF
Sequence of EGFR(L747-E749del, A750P) (P00533 with tags, fused parts or gaps DEL747-749/A750P): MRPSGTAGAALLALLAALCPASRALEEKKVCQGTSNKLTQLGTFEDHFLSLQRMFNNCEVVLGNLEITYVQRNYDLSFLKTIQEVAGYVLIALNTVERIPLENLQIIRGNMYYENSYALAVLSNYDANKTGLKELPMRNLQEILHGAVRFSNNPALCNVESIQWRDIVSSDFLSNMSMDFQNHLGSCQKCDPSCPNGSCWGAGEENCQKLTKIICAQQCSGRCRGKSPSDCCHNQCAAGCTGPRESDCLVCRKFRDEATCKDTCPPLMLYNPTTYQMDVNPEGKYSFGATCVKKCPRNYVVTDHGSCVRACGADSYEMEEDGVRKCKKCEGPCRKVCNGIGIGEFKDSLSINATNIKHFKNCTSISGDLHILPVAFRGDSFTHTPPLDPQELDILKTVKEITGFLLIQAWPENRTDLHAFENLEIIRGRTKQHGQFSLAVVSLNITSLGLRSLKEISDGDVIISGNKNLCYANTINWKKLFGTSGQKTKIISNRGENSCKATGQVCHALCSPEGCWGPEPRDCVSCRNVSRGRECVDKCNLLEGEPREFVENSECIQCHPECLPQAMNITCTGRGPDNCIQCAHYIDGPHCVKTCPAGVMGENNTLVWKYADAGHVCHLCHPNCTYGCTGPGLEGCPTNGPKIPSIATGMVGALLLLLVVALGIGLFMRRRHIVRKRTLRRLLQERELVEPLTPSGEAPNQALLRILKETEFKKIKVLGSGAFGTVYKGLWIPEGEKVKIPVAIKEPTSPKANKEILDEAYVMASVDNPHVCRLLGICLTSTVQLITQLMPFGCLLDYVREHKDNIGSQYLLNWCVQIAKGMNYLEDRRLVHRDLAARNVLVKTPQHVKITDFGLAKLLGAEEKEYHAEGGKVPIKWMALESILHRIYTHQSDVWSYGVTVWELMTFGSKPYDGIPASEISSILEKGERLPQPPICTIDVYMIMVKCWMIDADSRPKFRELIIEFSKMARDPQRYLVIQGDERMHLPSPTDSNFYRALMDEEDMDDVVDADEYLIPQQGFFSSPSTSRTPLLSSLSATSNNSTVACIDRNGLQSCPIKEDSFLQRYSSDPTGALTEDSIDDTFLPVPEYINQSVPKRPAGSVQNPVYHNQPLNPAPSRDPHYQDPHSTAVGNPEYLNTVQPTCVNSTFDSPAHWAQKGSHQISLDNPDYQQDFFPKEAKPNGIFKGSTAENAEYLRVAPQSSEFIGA
T2 sequence (Q8N4C8 whole entry): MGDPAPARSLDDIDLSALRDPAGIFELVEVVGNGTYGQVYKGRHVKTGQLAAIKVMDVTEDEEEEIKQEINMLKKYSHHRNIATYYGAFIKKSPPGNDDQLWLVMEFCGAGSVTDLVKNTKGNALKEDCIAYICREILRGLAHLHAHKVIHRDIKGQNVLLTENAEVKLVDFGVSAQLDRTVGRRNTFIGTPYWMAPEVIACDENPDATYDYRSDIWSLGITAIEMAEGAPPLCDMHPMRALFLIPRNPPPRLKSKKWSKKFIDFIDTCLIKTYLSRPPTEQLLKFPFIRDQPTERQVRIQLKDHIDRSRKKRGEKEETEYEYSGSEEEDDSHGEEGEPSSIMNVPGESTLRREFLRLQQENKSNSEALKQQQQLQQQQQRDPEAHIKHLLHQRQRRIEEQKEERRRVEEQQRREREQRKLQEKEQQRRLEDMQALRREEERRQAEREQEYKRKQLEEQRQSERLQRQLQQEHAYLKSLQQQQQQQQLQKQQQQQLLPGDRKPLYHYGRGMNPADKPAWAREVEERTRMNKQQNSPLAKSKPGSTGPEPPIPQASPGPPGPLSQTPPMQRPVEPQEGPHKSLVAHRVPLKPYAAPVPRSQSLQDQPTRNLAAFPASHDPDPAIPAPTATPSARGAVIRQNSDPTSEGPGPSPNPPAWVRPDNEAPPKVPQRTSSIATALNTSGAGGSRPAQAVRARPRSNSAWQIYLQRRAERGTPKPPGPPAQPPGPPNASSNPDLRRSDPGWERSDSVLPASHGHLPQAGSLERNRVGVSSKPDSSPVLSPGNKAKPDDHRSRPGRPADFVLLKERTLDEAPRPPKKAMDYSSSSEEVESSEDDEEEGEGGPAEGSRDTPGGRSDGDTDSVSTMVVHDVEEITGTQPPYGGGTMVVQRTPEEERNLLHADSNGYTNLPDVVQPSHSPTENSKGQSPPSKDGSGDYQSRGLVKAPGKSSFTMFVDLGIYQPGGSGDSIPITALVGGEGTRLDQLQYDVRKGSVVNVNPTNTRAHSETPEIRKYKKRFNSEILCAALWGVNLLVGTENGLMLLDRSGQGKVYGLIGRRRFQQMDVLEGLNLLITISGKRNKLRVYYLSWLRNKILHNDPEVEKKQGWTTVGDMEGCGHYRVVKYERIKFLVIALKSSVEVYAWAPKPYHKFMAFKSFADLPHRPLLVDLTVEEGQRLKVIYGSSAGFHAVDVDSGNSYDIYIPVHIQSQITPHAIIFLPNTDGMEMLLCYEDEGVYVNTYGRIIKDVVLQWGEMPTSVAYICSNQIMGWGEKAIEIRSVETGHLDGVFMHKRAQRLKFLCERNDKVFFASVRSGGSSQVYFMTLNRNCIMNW

remaining binding at 100 µM [1]: 76%
remaining binding at 100 µM [2]: 67%
remaining binding at 100 µM [3]: 100%
remaining binding at 100 µM [4]: 86%
remaining binding at 100 µM [5]: 70%
remaining binding at 100 µM [6]: 100%
remaining binding at 100 µM [7]: 86%
remaining binding at 100 µM [8]: 61%
remaining binding at 100 µM [9]: 66%
remaining binding at 100 µM [10]: 83%
remaining binding at 100 µM [11]: 46%
remaining binding at 100 µM [12]: 78%
remaining binding at 100 µM [13]: 90%
remaining binding at 100 µM [14]: 73%
remaining binding at 100 µM [15]: 72%
remaining binding at 100 µM [16]: 67%
remaining binding at 100 µM [17]: 84%
remaining binding at 100 µM [18]: 100%
remaining binding at 100 µM [19]: 100%
remaining binding at 100 µM [20]: 100%
remaining binding at 100 µM [21]: 90%
remaining binding at 100 µM [22]: 75%
Structure (SMILES): C=C(C)[C@H]1CC=C(C)C(=O)C1 [S-carvone]
